According to patent publication US10501492B2, “Antibiotic compounds” (priority 2009, dated 2019):
Read-outs that look alike come from different tables or passages of the source.

Test system: M. tuberculosis Clinical isolate: S, H, R and E resistant
Format: cell-based, Mycobacterium tuberculosis
Conditions: 72 hours

C=C(NC(=O)C(=C)NC(=O)c1csc(C2=NC3c4csc(n4)C4NC(=O)c5csc(n5)C(C(C)(O)C(C)O)NC(=O)C5CSC(=N5)/C(=C\C)NC(=O)C(C(C)O)NC(=O)c5csc(n5)C3(CC2)NC(=O)C(C)NC(=O)C(=C)NC(=O)C(C)NC(=O)C(C(C)C)NC2C=Cc3c(C(C)O)cc(nc3C2O)C(=O)OC4C)n1)C(N)=O (stereo not drawn) [Compound of Formula I(a)]
% reduction in RLU (0.5 μg/mL): 20.88%
% reduction in RLU (5 μg/mL): 78.11%
% reduction in RLU (10 μg/mL): 88.42%

C=C(NC(=O)c1csc(C2=NC3c4csc(n4)C4NC(=O)c5csc(n5)C(C(C)(O)C(C)O)NC(=O)C5CSC(=N5)/C(=C\C)NC(=O)C(C(C)O)NC(=O)c5csc(n5)C3(CC2)NC(=O)C(C)NC(=O)C(=C)NC(=O)C(C)NC(=O)C(C(C)C)NC2C=Cc3c(C(C)O)cc(nc3C2O)C(=O)OC4C)n1)C(=O)NC(C)C(N)=O (stereo not drawn) [Compound of Formula I(b)]
% reduction in RLU (0.5 μg/mL): 5.67%
% reduction in RLU (5 μg/mL): 70.9%
% reduction in RLU (10 μg/mL): 83.74%
